# Experimental data published in PubChem BioAssay (NCI).
# Values joined by “and” are separate entries in the source; they are usually repeats but may differ in a detail not shown here. Equal values may be shown once.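 In this assay, cells in 96-well plates receive the compound at five concentrations for 48 hours. Endpoints are linearly interpolated between the surrounding concentrations. At the GI50, growth is halved. TGI marks complete inhibition of growth.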
# Legend:
# Assay in all cases: DTP human tumour cell line panel, 48 h
# HCT-116 colon = system: HCT-116 colon
# RXF 393 renal = system: RXF 393 renal
# MALME-3M melanoma = system: MALME-3M melanoma
# SW-620 colon = system: SW-620 colon
# NCI-H460 lung = system: NCI-H460 lung
# SNB-75 CNS = system: SNB-75 CNS
# UACC-257 melanoma = system: UACC-257 melanoma
# MOLT-4 leukemia = system: MOLT-4 leukemia
# OVCAR-3 ovarian = system: OVCAR-3 ovarian
# OVCAR-4 ovarian = system: OVCAR-4 ovarian
SMILES,TGI (HCT-116 colon),TGI (RXF 393 renal),TGI (MALME-3M melanoma),TGI (SW-620 colon),TGI (NCI-H460 lung),TGI (SNB-75 CNS),TGI (UACC-257 melanoma),TGI (MOLT-4 leukemia),TGI (OVCAR-3 ovarian),GI50 (HCT-116 colon) [µM],GI50 (RXF 393 renal) [µM],GI50 (MALME-3M melanoma) [µM],GI50 (SW-620 colon) [µM],GI50 (NCI-H460 lung) [µM],GI50 (SNB-75 CNS) [µM],GI50 (UACC-257 melanoma) [µM],GI50 (MOLT-4 leukemia) [µM],GI50 (OVCAR-4 ovarian) [µM],TGI (OVCAR-4 ovarian) [µM],GI50 (OVCAR-3 ovarian) [µM]
CC(C)(C)C1CCC(O)(c2ccccc2)CC1 (configuration not stated),> 100 µM and 47.9 µM,> 100 µM and 41.8 µM,> 100 µM and 63.2 µM,> 100 µM and 40.1 µM,> 100 µM and 55.8 µM,> 100 µM and 60 µM,> 100 µM and 48.2 µM,> 100 µM and 39.5 µM,> 100 µM and 41.7 µM,,,,,,,,,,,
COc1cc2c3c(n(CCCN)c(=O)c2cc1OC)-c1ccc(N)cc1C3=O,1.35 µM,7.22 µM,26.4 µM,11.7 µM,16.8 µM,12.3 µM,50.3 µM,4.7 µM,> 29.6 µM,0.339,1.07,5.85,0.607,4.52,1.75,13.7,0.527,1.57,11.6,2.12
O=C(CCN1CCOCC1)Nc1ccc(Cn2nnc3c2C(=O)c2nnn(Cc4ccc(NC(=O)CCN5CCOCC5)cc4)c2C3=O)cc1,> 100 µM,> 100 µM,0.747 µM,> 100 µM,> 100 µM,3.6 µM,3.57 µM,3.48 µM,1.39 µM,0.384,> 100,0.247,2.58,0.569,1.93,1.64,0.763,1.36,3.44,0.333
COc1ccc(-n2c(=O)c3ccccc3n(Cc3ccc(C(=O)NO)cc3)c2=O)cc1,4.16 µM,3.34 µM,5.92 µM,6.97 µM,12.9 µM,5.71 µM,4.3 µM,> 100 µM,5.95 µM,1.78,1.49,1.58,2.13,2.58,1.72,1.65,3.21,2.86,20,2.07
CC1(C)CC(=O)C(C(=O)Nc2cccs2)=C(O)C1,> 100 µM,> 100 µM,> 100 µM,> 100 µM,> 100 µM,59.3 µM,> 100 µM,88.1 µM,> 100 µM,,,,,,,,,,> 100,
OCc1ccc(N2CCc3ccc(F)cc3C2)cc1Cl,11.1 µM,12.1 µM,26.9 µM,11.2 µM,0.532 µM,25.3 µM,0.101 µM,30.5 µM,0.325 µM,0.0267,0.373,12.1,0.18,0.0872,11.5,0.0279,4.48,0.0799,0.772,0.0605
C#CCCCCCC(=O)N[C@H]1C=C[C@@H]2/C=C(C)/C=C/[C@@H](C)[C@H]([C@H](C)[C@H](O)[C@@H](C)NC(C)=O)OC(=O)/C=C/C=C(C)\C=C\[C@]2(C)C1,> 40 µM,2.48 µM,17.9 µM,> 40 µM,> 40 µM,> 40 µM,0.0324 µM,> 40 µM,> 40 µM,< 0.004,< 0.004,0.567,< 0.004,< 0.004,0.0127,< 0.004,6.79,3.06,> 40,0.00889
O=C(O)CSc1cc(NS(=O)(=O)c2ccc(Br)cc2)c2ccccc2c1O,16.2 µM,27.9 µM,21.1 µM,33.7 µM,37.4 µM,42.4 µM,12.1 µM,> 23.3 µM,9.09 µM,5.65,13.8,8.02,14.4,18.8,24,4.95,3.08,1.62,3.05,2.58
COc1ccccc1CNCCCN1C(=O)c2ccc3c4c(ccc(c24)C1=O)C(=O)N(CCCNCc1ccccc1OC)C3=O,0.274 µM,0.281 µM,0.32 µM,0.298 µM,0.421 µM,0.754 µM,0.349 µM,0.455 µM,0.218 µM,0.0805,0.142,0.155,0.0861,0.167,0.283,0.184,0.112,0.101,0.231,0.085
CC(C)(C)c1ccc(OCCOCCOc2ccc(C(C)(C)C)cc2S(N)(=O)=O)c(S(N)(=O)=O)c1,> 100 µM,> 100 µM,> 100 µM,> 100 µM,> 100 µM,> 100 µM,> 100 µM,28.7 µM,> 100 µM,,,,,,,,,,> 100,
CC(=O)O[C@H]([C@H](OC(C)=O)[C@H](C)OC(C)=O)[C@@H](/C=C/[C@H]1CC=CC(=O)O1)OC(C)=O,> 100 µM,> 100 µM,> 100 µM,> 100 µM,> 100 µM,61.7 µM,> 100 µM,> 100 µM,,33,> 100,> 100,37.6,59.4,22.2,> 100,72.7,34.7,> 100,
N#CC1(CCCCl)CCCCC1,> 100 µM,> 100 µM,> 100 µM,> 100 µM,> 100 µM,> 100 µM,> 100 µM,> 100 µM,> 100 µM,,,,,,,,,,,
COc1ccc([C@@H]2[C@@H](Oc3ccccc3)C(=O)N2c2cc(OC)c(OC)c(OC)c2)cc1F,2.45 µM,> 100 µM,> 100 µM,> 100 µM,> 100 µM,> 100 µM,,> 100 µM,> 100 µM,0.161,0.0593,> 100,0.0769,0.155,0.0567,,0.345,2.57,> 100,0.0511
O=C(NO)c1ccc(CNc2cccc3nc(C4CC4)n(-c4ccccc4)c(=O)c23)cc1,,3.14 µM,7.61 µM,6.01 µM,5.65 µM,5.93 µM,4.76 µM,23.3 µM,5.51 µM,,1.42,2.05,1.81,1.9,1.78,1.82,2.79,2.28,21.9,1.92
